Laboratory results as given in patent US12295396B2, “Antagonists of T2R54 and compositions and uses thereof” (Firmenich Incorporated, priority 2018, dated 2025).

Target: T1, hT2R54 (Homo sapiens, UniProt P59534)
T1 construct: expressed in transfected cells; it overexpresses a promiscuous G protein
T1 sequence (P59534 1-338): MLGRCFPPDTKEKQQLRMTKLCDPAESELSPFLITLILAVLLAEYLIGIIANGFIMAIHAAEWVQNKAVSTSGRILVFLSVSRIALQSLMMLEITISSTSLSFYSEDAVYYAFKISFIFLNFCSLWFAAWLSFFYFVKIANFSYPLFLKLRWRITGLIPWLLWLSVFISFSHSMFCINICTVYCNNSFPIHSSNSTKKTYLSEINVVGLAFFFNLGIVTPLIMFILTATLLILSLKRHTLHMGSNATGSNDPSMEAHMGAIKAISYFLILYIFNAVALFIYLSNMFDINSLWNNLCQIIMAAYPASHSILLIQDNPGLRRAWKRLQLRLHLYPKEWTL
Assay: Cell-based assay for measuring hT2R54 inhibition (FLIPR calcium, Fluo4AM, acetaminophen as bitter agonist)
Conditions: Table 2; cells stably expressing hT2R54 and a promiscuous G protein; read-out: hT2R54 IC50
Method in brief: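 Cells stably co-expressing hT2R54 and a promiscuous G protein were loaded with Fluo4AM and given acetaminophen dose series, alone or with fixed concentrations of test compound. On FLIPR, baseline was recorded for 10 s and fluorescence for 3 min after addition. IC50 is the concentration halving the acetaminophen-alone response.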

| SMILES | IC50 |
| --- | --- |
| COCc1ccc(C(=O)N2CCN(CC(=O)Nc3cc4c(cc3C(C)=O)OCO4)CC2)s1 [compound 289] | 21 nM |
| CC(=O)c1cc2c(cc1NC(=O)CN1CCN(C(=O)c3cc(C)c(C)o3)CC1)OCO2 [compound 290] | 10 nM |
| CCc1oc(C(=O)N2CCN(CC(=O)Nc3cc4c(cc3C(C)=O)OCO4)CC2)cc1COC [compound 291] | 49 nM |
| CC(=O)c1cc2c(cc1NC(=O)CN1CCN(C(=O)c3ccc(Cn4cccn4)o3)CC1)OCO2 [compound 292] | 6 nM |
| CC(=O)c1cc2c(cc1NC(=O)CN1CCN(C(=O)c3cc(C)no3)CC1)OCO2 [compound 293] | 8 nM |
| COCc1cc(C(=O)N2CCN(CC(=O)Nc3cc4c(cc3C(C)=O)OCO4)CC2)no1 [compound 294] | 70 nM |
| COCc1nc(C(=O)N2CCN(CC(=O)Nc3cc4c(cc3C(C)=O)OCO4)CC2)cs1 [compound 295] | 20 nM |
| COCc1nc(C(=O)N2CCN(CC(=O)Nc3cc4c(cc3C(C)=O)OCO4)CC2)co1 [compound 296] | 53 nM |
| CC(=O)c1cc2c(cc1NC(=O)CN1CCN(C(=O)c3coc(C)n3)CC1)OCO2 [compound 297] | 23 nM |
| CC(=O)c1cc2c(cc1NC(=O)CN1CCN(C(=O)c3conc3C)CC1)OCO2 [compound 298] | 91 nM |
| CC(=O)c1cc2c(cc1NC(=O)CN1CCN(C(=O)c3ncoc3C)CC1)OCO2 [compound 299] | 58 nM |
| CC(=O)c1cc2c(cc1NC(=O)CN1CCN(C(=O)c3cc(C)on3)CC1)OCO2 [compound 300] | 40 nM |
| CC(=O)c1cc2c(cc1NC(=O)CN1CCN(C(=O)c3ncc[nH]3)CC1)OCO2 [compound 301] | 20 nM |
| CC(=O)c1cc2c(cc1NC(=O)CN1CCN(C(=O)c3cn[nH]c3)CC1)OCO2 [compound 302] | 800 nM |
| CC(=O)c1cc2c(cc1NC(=O)CN1CCN(C(=O)c3c[nH]nn3)CC1)OCO2 [compound 303] | 60 nM |
| CC(=O)c1cc2c(cc1NC(=O)CN1CCN(C(=O)c3ncn[nH]3)CC1)OCO2 [compound 304] | 80 nM |
| CC(=O)c1cc2c(cc1NC(=O)CN1CCN(C(=O)c3nccn3C)CC1)OCO2 [compound 305] | 31 nM |
| COc1cc2c(cc1NC(=O)CN1CCN(C(=O)c3nc(C)c[nH]3)CC1)OCO2 [compound 306] | 77 nM |
| CC(=O)c1cc2c(cc1NC(=O)CN1CCN(C(=O)c3n[nH]cc3C)CC1)OCO2 [compound 307] | 90 nM |
| CC(=O)c1cc2c(cc1NC(=O)CN1CCN(C(=O)c3nc(C)c[nH]3)CC1)OCO2 [compound 308] | 9 nM |

| SMILES | IC50 |
| --- | --- |
| CC(=O)c1cc2c(cc1NC(=O)CN1CCN(C(=O)c3c[nH]c(C)n3)CC1)OCO2 [compound 309] | 200 nM |
| CC(=O)c1cc2c(cc1NC(=O)CN1CCN(C(=S)Nc3ccccc3)CC1)OCO2 [compound 310] | 800 nM |
| COCC(=O)N1CCN(CC(=O)Nc2cc3c(cc2C(=O)OC)OCO3)CC1 [compound 311] | 82 nM |
| COCCC(=O)N1CCN(CC(=O)Nc2cc3c(cc2C(=O)OC)OCO3)CC1 [compound 312] | 157 nM |
| CC(=O)c1cc2c(cc1NC(=O)CN1CCN(C(=O)[C@H]3CCC(=O)O3)CC1)OCO2 [compound 313] | 60 nM |
| CC(=O)c1cc2c(cc1NC(=O)CN1CCN(C(=O)[C@@H]3CCCO3)CC1)OCO2 [compound 314] | 60 nM |
| CC(=O)c1cc2c(cc1NC(=O)CN1CCN(C(=O)[C@H]3CCCO3)CC1)OCO2 [compound 315] | 130 nM |
| CC(=O)c1cc2c(cc1NC(=O)C(C)N1CCN(C(=O)[C@@H]3CCCO3)CC1)OCO2 (stereo partly shown) [compound 316] | 80 nM |
| CC(=O)c1cc2c(cc1NC(=O)C(C)N1CCN(C(=O)[C@H]3CCCO3)CC1)OCO2 (stereo partly shown) [compound 317] | 200 nM |
| CC(=O)c1cc2c(cc1NC(=O)C(C)N1CCN(C(=O)C3CCCO3)CC1)OCO2 (stereo not shown) [compound 318] | 60 nM |
| CC(=O)c1cc2c(cc1NC(=O)C(C)(C)N1CCN(C(=O)C3CCCO3)CC1)OCO2 (stereo not shown) [compound 319] | 1000 nM |
| COCC(C(=O)Nc1cc2c(cc1C(C)=O)OCO2)N1CCN(C(=O)[C@H]2CCCO2)CC1 (stereo partly shown) [compound 320] | 1600 nM |
| CC(=O)c1cc2c(cc1NC(=O)CN1CCN(C(=O)C3CCN(C)C3)CC1)OCO2 (stereo not shown) [compound 321] | 1000 nM |
| CC(=O)c1cc2c(cc1NC(=O)CN1CCN(C(=O)CC3CCCO3)CC1)OCO2 (stereo not shown) [compound 322] | 70 nM |
| CC(=O)c1cc2c(cc1NC(=O)CN1CCN(C(=O)CC3CCOC3)CC1)OCO2 (stereo not shown) [compound 323] | 200 nM |
| CC(=O)c1cc2c(cc1NC(=O)CN1CCN(C(=O)Cc3ccoc3)CC1)OCO2 [compound 324] | 80 nM |
| COCc1ccc(C(=O)N2CCN(CC(=O)Nc3cc4c(cc3C(C)=O)OCCO4)CC2)cc1 [compound 325] | 45 nM |
| CC(=O)c1cc2c(cc1NC(=O)CN1CCN(C(=O)c3cccnc3)CC1)OCCO2 [compound 326] | 40 nM |
| CC(=O)c1cc2c(cc1NC(=O)CN1CCN(C(=O)c3ccncc3)CC1)OCCO2 [compound 327] | 70 nM |
| CC(=O)c1cc2c(cc1NC(=O)CN1CCN(C(=O)c3ncn[nH]3)CC1)OCCO2 [compound 328] | 60 nM |

| SMILES | IC50 |
| --- | --- |
| CC(=O)c1cc2c(cc1NC(=O)CN1CCN(C(=O)c3cnn[nH]3)CC1)OCCO2 [compound 329] | 50 nM |
| CC(=O)c1cc2c(cc1NC(=O)CN1CCN(C(=O)c3ccn[nH]3)CC1)OCCO2 [compound 330] | 90 nM |
| CC(=O)c1cc2c(cc1NC(=O)CN1CCN(C(=O)c3c[nH]c(C)n3)CC1)OCCO2 [compound 331] | 200 nM |
| CC(=O)c1cc2c(cc1NC(=O)CN1CCN(C(=O)c3nc(C)c[nH]3)CC1)OCCO2 [compound 332] | 200 nM |
| CC(=O)c1cc2c(cc1NC(=O)CN1CCN(C(=O)c3ccc(C)o3)CC1)OCCO2 [compound 333] | 80 nM |
| CC(=O)c1cc2c(cc1NC(=O)CN1CCN(C(=O)Cc3ccco3)CC1)OCCO2 [compound 334] | 50 nM |
| CC(=O)c1cc2c(cc1NC(=O)CN1CCN(C(=O)[C@H]3CCC(=O)O3)CC1)OCCO2 [compound 335] | 50 nM |
| CC(=O)c1cc2c(cc1NC(=O)CN1CCN(C(C)=O)CC1)OCCO2 [compound 336] | 50 nM |
| CC(=O)c1cc2c(cc1NC(=O)C(C)N1CCN(C(C)=O)CC1)OCCO2 (stereo not shown) [compound 337] | 60 nM |
| COCC(=O)N1CCN(CC(=O)Nc2cc3c(cc2C(C)=O)OCCO3)CC1 [compound 338] | 60 nM |
| COCCOCC(=O)N1CCN(CC(=O)Nc2cc3c(cc2C(C)=O)OCCO3)CC1 [compound 339] | 80 nM |
| CC(=O)c1cc2c(cc1NC(=O)CN1CCN(C(=O)C3CCCO3)CC1)OCCO2 (stereo not shown) [compound 340] | 90 nM |
| CC(=O)c1cc2c(cc1NC(=O)CN1CCN(C(=O)[C@@H]3CCCO3)CC1)OCCO2 [compound 341] | 1800 nM |
| CC(=O)c1cc2c(cc1NC(=O)CN1CCN(C(=O)[C@H]3CCCO3)CC1)OCCO2 [compound 342] | 70 nM |
| CC(=O)c1cc2c(cc1NC(=O)CN1CCN(C(=O)C3CCCCO3)CC1)OCCO2 (stereo not shown) [compound 343] | 30 nM |
| CC(=O)c1cc2c(cc1NC(=O)CN1CCN(C(=O)CC3CCOC3)CC1)OCCO2 (stereo not shown) [compound 344] | 50 nM |
| CC(=O)c1cc2c(cc1NC(=O)CN1CCN(C(=O)CN3CCCC3)CC1)OCCO2 [compound 345] | > 10000 nM |
| COC(=O)c1cc2c(cc1NC(=O)CN1CCN(C(=O)c3cn(C)nn3)CC1)OCO2 [compound 346] | 23 nM |
